These are literature values, as cited in US8263660B2, “Stable hyperbaric composition comprising prilocaine HCl, use of said new composition for intrathecal anaethesia, and method for manufacturing said composition” (Sintetica S.A., priority 2006, dated 2012).

The conditions of the series: intrathecal application, literature reference (4).

For the compound `CCN(CC)CCOC(=O)c1ccc(N)cc1` [procaine], the inadequacy rate is at most 17%.
